{"source": "paper PMC7647782", "about": "“Cytotoxic, Antioxidant, and Metabolic Enzyme Inhibitory Activities of Euphorbia cyparissias Extracts” (Oxidative Medicine and Cellular Longevity, 2020)", "key": {"[1]": {"target": "SPLA2-IB", "assay": "Phospholipase activity inhibition, stingray PLA2-IB", "format": "biochemical", "details": "stingray group IB phospholipase", "quoted_text": "The phospholipase activities were measured based on the De Araújo and Radvanyi method [24]. The inhibitory effect of various extracts was determined using samples of dromedary, stingray, and porcine digestive group IB phospholipases (PLA2-IB). A 10 μL sample of ethanolic or aqueous extract was mixed with 10 μL of PLA2-GIB and preincubated for 20 min at room temperature. The mixture was added to 1 mL of the substrate, which was composed of lecithin (3.5 mM) solubilized in 100 mM NaCl, 3 mM sodium taurodeoxycholate, 10 mM CaCl2, and 0.055 mM red phenol at a pH of 7.6. […] The inhibition percentage was calculated by measuring residual activity compared to negative control assay (absence of extract). The IC50 values were determined from the curve.\nValues represent the mean ± SD of triplicate measurements."}, "[2]": {"target": "chymotrypsin (Bos taurus, UniProt P00766)", "assay": "Protease activity inhibition, chymotrypsin", "format": "biochemical", "details": "unit as in head of Table 4", "experimental": "(§1) The trypsin and chymotrypsin activity inhibition was performed as described by Kunitz. An aliquot of 1 mL of ethanolic or water extract was incubated for 15 min at 37°C with an equal volume of the enzyme. The mixture was then incubated for 30 min at 37°C with 2 mL of 2% casein as the substrate. The reaction was stopped by adding 2.5 mL of 5% trichloroacetic acid (TCA). The activity was determined by measuring the absorbance of the mixture at 280 nm, after 15 min of centrifugation at 15 000 rpm. Ethanol was used as a negative control and Bowman-Birk Inhibitor (BBI) as a positive control. The protease activity inhibition was also expressed as inhibition percentage, which was determined by comparing the results with those of a control experiment."}, "[3]": {"target": "β-glucosidase", "assay": "β-Glucosidase activity inhibition", "format": "biochemical", "experimental": "[20], respectively. […] The enzymes β-glucosidase, α-amylase, and XO were purchased from Sigma-Aldrich (St. Louis, MO, USA). The β-glucosidase activity was determined by measuring the 4-nitrophenol […] (4-NPGP) product. […] Then, the mixture was incubated with color reagent NPGP (180 μL) for more 15 min at 37°C. […] The activity was evaluated by measuring absorbance at 405 nm with a microplate reader. The same equation used to measure α-amylase activity was used to measure that of β-glucosidase."}, "[4]": {"target": "dromedary lipase (DrPL)", "assay": "Lipase activity inhibition, dromedary lipase", "format": "biochemical", "details": "mean ± SD of triplicate", "description": "Dromedary (DrPlA2-IB), porcine (PPPlA2-IB), and stingray group IB phospholipases (SPLA2-IB) were purified and prepared as described in our previous works and De Haas et al., respectively. Dromedary (DrPL), stingray (SPL), and porcine (PPL) lipases were also purified according to protocols optimized in previous works. The enzymes β-glucosidase, α-amylase, and XO were purchased from Sigma-Aldrich (St. Louis, MO, USA).\nThe inhibitory effect of ethanolic and aqueous extracts of E. cyparissias on dromedary, stingray, and porcine lipase activities were investigated at different concentrations ranging from 0 to 100 μg/mL. The assay was carried out by incubating 12 IU of enzymes (50 μL) with 10 μL of extract. A positive control using commercial orlistat (Xenical, Hoffmann-La Roche) was run in parallel in the same conditions. Inhibition of lipase activities was expressed as the percentage of residual activity after incubation with Euphorbia extracts compared to the negative control ([…]). Lipase activities were measured using tributyrin as a substrate under the optimal conditions for each enzyme, as previously described. The IC50 values correspond to the half maximal inhibitory concentration.\nThe activities of these lipases were measured using the pH-stat technique on olive oil emulsion at optimal conditions for enzyme activity. […]"}, "[5]": {"assay": "DPPH radical scavenging assay", "experimental": "In every sample of E. cyparissias extract, the antioxidant activity was evaluated by using the DPPH radical scavenging and reducing power assays as previously described in the literature. To measure DPPH activity, a sample of 0.5 mL for each concentration was mixed with an equal volume of DPPH ethanolic solution and incubated in darkness for 1 h at ambient temperature. The activity was determined by comparing the absorbance at 519 nm of DPPH radicals to that of the control (containing all reagents except the extract)."}, "[6]": {"target": "T1, trypsin (Bos taurus, UniProt P00760)", "T1 construct": "gene PRSS1", "T1 sequence (P00760 24-246)": "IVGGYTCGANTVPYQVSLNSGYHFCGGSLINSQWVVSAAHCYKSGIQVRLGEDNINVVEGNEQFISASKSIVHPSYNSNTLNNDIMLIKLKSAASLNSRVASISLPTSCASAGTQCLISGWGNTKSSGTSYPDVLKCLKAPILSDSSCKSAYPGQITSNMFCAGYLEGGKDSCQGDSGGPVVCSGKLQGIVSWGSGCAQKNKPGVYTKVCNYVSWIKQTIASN", "assay": "Protease activity inhibition, trypsin", "format": "biochemical", "details": "unit as in head of Table 4", "experimental": "as §1"}}}
{"molecule": "CC1(C)CC[C@]2(C(=O)O)CC[C@]3(C)C(=CC[C@@H]4[C@@]5(C)CC[C@H](O)C(C)(C)[C@@H]5CC[C@]43C)[C@@H]2C1", "note": "[Oleanolic acid, oleanolic acid]", "values": [{"measurement": "IC50 SPLA2-IB", "setting": "[1]", "result": "82.8 ± 5.7", "unit": "µg/mL"}]}
{"molecule": "BBI: Bowman-Birk Inhibitor, positive control for trypsin and chymotrypsin inhibition", "values": [{"measurement": "IC50 Chymotrypsin", "setting": "[2]", "result": "0.0108 ± 0.0004", "unit": "µg/mL"}]}
{"molecule": "C[C@H]1O[C@H](O[C@H]2[C@H](O)[C@@H](O)[C@@H](O[C@H]3[C@H](O)[C@@H](O)C(O)O[C@@H]3CO)O[C@@H]2CO)[C@H](O)[C@@H](O)[C@@H]1N[C@H]1C=C(CO)[C@@H](O)[C@H](O)[C@H]1O", "note": "(stereo partly shown) [Acarbose]", "values": [{"measurement": "IC50 β-Glucosidase", "setting": "[3]", "result": "26.2 ± 2.5", "unit": "µg/mL"}]}
{"molecule": "CCCCCCCCCCC[C@@H](C[C@@H]1OC(=O)[C@H]1CCCCCC)OC(=O)[C@H](CC(C)C)NC=O", "note": "[Orlistat, orlistat]", "values": [{"measurement": "IC50 DrPL", "setting": "[4]", "result": "97.2 ± 2.5", "unit": "µg/mL"}]}
{"molecule": "Cc1cc(C(C)(C)C)c(O)c(C(C)(C)C)c1", "note": "[BHT, butylated hydroxytoluene]", "values": [{"measurement": "DPPH scavenging activity", "setting": "[5]; at a concentration of 1 mg/mL", "result": "95.3 ± 0.4", "unit": "%"}, {"measurement": "DPPH IC50", "setting": "[5]; from Figure 5(b), unit as printed for BHT", "result": "~54", "unit": "µg/mL"}]}
{"molecule": "BBI: Bowman-Birk Inhibitor, positive control for trypsin and chymotrypsin inhibition (protein, seven intrachain disulfides; Check residues are the known reactive sites Lys16 and Leu43 in mat) DDESSKPCCDQCACTKSNPPQCRCSDMRLNSCHSACKSCICALSYPAQCFCVDITDFCYEPCKPSEDDKEN", "values": [{"measurement": "IC50 Trypsin", "setting": "[6]", "result": "0.0115 ± 0.0004", "unit": "µg/mL"}]}
